Source: paper PMC11506171, “Quercetin as a Modulator of PTPN22 Phosphomonoesterase Activity: A Biochemical and Computational Evaluation” (Current Issues in Molecular Biology, 2024)

Assays:
Format in all cases: biochemical
[1] = molecular target: T1, protein tyrosine phosphatase nonreceptor type 22 (PTPN22) (Homo sapiens, UniProt Q9Y2R2); assay: pNPP phosphatase assay, single concentration screen at […]; details: read-out: % inhibition at 50 μM
T1 construct: catalytic domain, amino acids 1 to 303
T1 sequence (Q9Y2R2 1-303): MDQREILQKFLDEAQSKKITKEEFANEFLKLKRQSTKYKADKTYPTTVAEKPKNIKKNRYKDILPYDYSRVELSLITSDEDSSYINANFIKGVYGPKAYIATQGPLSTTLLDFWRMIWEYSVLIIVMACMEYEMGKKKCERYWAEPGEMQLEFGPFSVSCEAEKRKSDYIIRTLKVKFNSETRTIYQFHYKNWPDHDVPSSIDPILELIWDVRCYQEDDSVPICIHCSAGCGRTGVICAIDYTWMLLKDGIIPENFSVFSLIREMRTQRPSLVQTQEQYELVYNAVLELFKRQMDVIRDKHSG

[2] = molecular target: T1, protein tyrosine phosphatase nonreceptor type 22 (PTPN22); assay: pNPP phosphatase assay with recombinant enzyme; Lineweaver-Burk and Dixon plots (Ki […])
[3] = molecular target: T1, protein tyrosine phosphatase nonreceptor type 22 (PTPN22); assay: pNPP phosphatase assay with recombinant enzyme, reference inhibitor

Compound | inhibition at 50 µM [1] [%] | further results
O=C1C=C(O)C(=O)c2ccccc21 [2HNQ] | 62 | –
O=C1C=CC(=O)c2c(O)cccc21 [5HNQ] | 61 | –
CO[C@H]1C[C@H](O[C@H]2[C@H](C)O[C@@H](O[C@@H]3/C(C)=C/C[C@@H]4C[C@@H](C[C@]5(C=C[C@H](C)[C@@H](C6CCCCC6)O5)O4)OC(=O)[C@@H]4C=C(C)[C@@H](O)[C@H]5OC/C(=C\C=C\[C@@H]3C)[C@]54O)C[C@@H]2OC)O[C@@H](C)[C@@H]1O [doramectin] | 50 | –
O=c1c(O)c(-c2ccc(O)c(O)c2)oc2cc(O)cc(O)c12 [quercetin] | – | IC50 [2]: 29.6 µM
CO[C@H]1C[C@H](O[C@@H]2/C(C)=C/C[C@@H]3C[C@@H](C[C@]4(CC[C@H](C)[C@@H](C5CCCCC5)O4)O3)OC(=O)[C@@H]3C=C(C)/C(=N/O)[C@H]4OC/C(=C\C=C\[C@@H]2C)[C@]43O)O[C@@H](C)[C@@H]1O [selamectin] | 54 | –
C[C@H]1[C@H](C)CC[C@]2(C(=O)O)CC[C@]3(C)C(=CC[C@@H]4[C@@]5(C)CC[C@H](O)C(C)(C)[C@@H]5CC[C@]43C)[C@H]12 [ursolic acid] | – | IC50 [3]: 37.2 µM
